Measured values: patent publication US20120135053A1, “NANOPARTICULATE TELMISARTAN COMPOSITIONS AND PROCESS FOR THE PREPARATION THEREOF” (priority 2009, published 2012)
Read-outs that look alike come from different tables or passages of the source.

How the values were obtained:
[1] = Visual observation of wettability by stereomicroscope; assay type: physicochemical; conditions: one drop of distillate water on 0.1 mg powder
in vivo = conditions: male, Wistar, rat, po, 30 mg/kg
Protocol: Both test substances were administered via gastric tube in a dosing volume of 5 ml/kg. The vehicle of the test items was sterile 0.9% NaCl solution and the suspension was kept homogenous by continuous stirring during treatment in order to minimize the error resulting from the sedimentation.
Male Wistar rats (purchased from Laboratory Animal Center, University of Szeged) were maintained on a standard pellet rodent diet (Bioplan Ltd, Isaszeg, Hungary) under temperature and light-controlled conditions with tap water available ad libitum. The acclimatization period was at least 4 days. […] All animals were fasting for 16 hours before oral treatment. […] Water was available immediately after treatment for all animals. […] Serum samples were prepared by centrifugation (7000 rpm, 10 min, 4° C.) of the clotted blood within 60 minutes and were stored at −20° C. till analysis.
An aliquot of 200 μl serum was combined with 20 μl of internal standard working solution and 1.2 ml acetonitrile for protein precipitation. The mixture was vortexed for 1 min and centrifuged at 12000 rpm for 10 min at 4° C. The supernatants were evaporated to dryness under a stream of nitrogen at 40° C. and reconstituted with 200 μl of water—methanol (50:50 v/v) and 20 μl was injected into the HPLC system.
Unpaired t-test was used to statistically compare the serum concentrations belonging to the same time points. […]

[2] = cited from earlier work
[3] = Comparative dissolution test in distillate water; assay type: physicochemical; conditions: UV-VIS
Protocol: The suspension was stirred for 1, 5, 10, 20 and 60 minutes and then it was filtered by 0.2 μm disposable syringe filter. Telmisartan concentration was determined by UV-VIS spectrophotometer (Agilent 8453).

[4] = cited from earlier work; remark: listed apart in the source
[5] = tested on: plasma proteins, mainly albumin and α1—acid glycoprotein; conditions: cited from earlier work

Q: For CCCc1nc2c(C)cc(-c3nc4ccccc4n3C)cc2n1Cc1ccc(-c2ccccc2C(=O)O)cc1 [Telmisartan, 4′-[(1,4′-dimethyl-2′-propyl [2,6′-bi-1H-benzimidazol]-1′-yl)methyl]-[1,1′-biphenyl]-2-carboxylic acid], which wettability [1] is on record?
A: stayed in their aggregated state

Q: What about the AUC (in vivo) of the same compound?
A: 15700 ng·h/mL

Q: And the solubility ([2]; hydrochloric acid)?
A: insoluble

Q: What about the solubility ([2]; strong acid) of the same compound?
A: sparingly soluble

Q: And the solubility ([2]; strong base)?
A: soluble

Q: What about the solubility ([2]; water and pH range of 3 to 9) of the same compound?
A: practically insoluble

Q: And the “dissolved Telmisartan content” value [3]?
A: cannot be detected

Q: And the “reduction in AUC by food” value ([4]; 40 mg tablet)?
A: about 6%

Q: And the absolute bioavailability ([4]; 40 mg)?
A: 42%

Q: What about the “reduction in AUC by food” value ([4]; 160 mg dose) of the same compound?
A: about 20%

Q: And the absolute bioavailability ([4]; 160 mg)?
A: 58%

Q: What about the “glucuronide share of the measured radioactivity in plasma” value ([4]; after a single dose) of the same compound?
A: approximately 11%

Q: And the “involvement of cytochrome P450 isoenzymes in metabolism” value ([4]; in vivo)?
A: not involved

Q: What about the “terminal elimination half life” value ([4]; in vivo) of the same compound?
A: approximately 24 hours

Q: And the total plasma clearance ([4]; in vivo)?
A: > 800 mL/min

Q: And the volume of distribution ([4]; in vivo)?
A: approximately 500 liters

Q: What about the “amount found in urine, % of total radioactivity” value ([4]; intravenous 14C-labeled Telmisartan) of the same compound?
A: 0.91%

Q: What about the “administered dose eliminated unchanged in feces via biliary excretion” value ([4]; intravenous or oral 14C-labeled Telmisartan) of the same compound?
A: > 97%

Q: And the “plasma concentrations with once daily dosing, % of peak plasma concentrations” value ([4]; once daily dosing)?
A: 10-25%

Q: And the “amount found in urine, % of total radioactivity” value ([4]; oral 14C-labeled Telmisartan)?
A: 0.49%

Q: What about the “accumulation index in plasma” value ([4]; repeated once daily dosing) of the same compound?
A: 1.5 to 2.0

Q: And the plasma protein binding [5]?
A: > 99.5%
